The results in this text go back to publication PMC6132687, “Stem cells are the most sensitive screening tool to identify toxicity of GATA4-targeted novel small-molecule compounds” (Archives of Toxicology, 2018).

In data set [1] the test system is stem cell and progenitor cell viability. Nature of the data set: Toxicity classification from MTT screening across cell types. To be noted: based on effects on stem cell and progenitor cell viability. As to the method: The cells were exposed to the test compounds for 24 h and cytotoxicity was quantified with MTT and LDH assays as described previously (Talman et al. [2011]). For the determination of cell membrane integrity, 50 µl of medium from each well was transferred onto a new 96-well plate followed by addition of 50 µl of substrate solution containing 1.3 mM β-nicotinamide adenine dinucleotide, 660 µM iodonitrotetrazolium, 54 mM L(+)-lactic acid, 280 µM phenazine methosulphate and 0.2 M Tris–HCl (pH 8.0). After a 30-min incubation, the reaction was stopped by adding 50 µl of 1 M acetic acid to each well and absorbance was measured at 490 nm using Victor2 plate reader (PerkinElmer, Turku, Finland). Spontaneous LDH release was measured from untreated cells, maximal LDH release from cells lysed with 0.9% Triton X-100 and background absorbance was measured from wells without cells. After background extraction, cytotoxicity was calculated as follows: cytotoxicity (%) = [(sample − spontaneous LDH release)/(maximal LDH release − spontaneous LDH release)] × 100. For quantification of metabolic activity, 3-(4,5-dimethylthiazol-2-yl)-2,5-diphenyltetrazolium bromide (MTT) was added to the cells at a final concentration of 0.5 mg/ml followed by 2 h incubation in cell culture conditions. The medium was then aspirated and formazan crystals were solubilized in DMSO. Absorbance was measured at 550 nm and absorbance at 650 nm was subtracted as background.
When comparing the effects of different compounds within each individual cell type, the compounds can be grouped into two main classes: toxic (3i-1000, 3i-1120, 3i-1148 and 3i-1229) and non-toxic (3i-1047, 3i-1051, 3i-1165, and 3i-1228) compounds. Based on the hiPSC toxicity data, 3i-1148 can be considered as the most toxic compound with an IC50 of 0.30 µM (Fig. 5b).

Data set [2] has as its system GATA4–NKX2-5 transcriptional synergy. Put plainly: Luciferase reporter assay of GATA4–NKX2-5 synergistic gene activation in COS-1 cells. The data set is classed as cell-based, African green monkey. To be noted: 24 h treatment, normalized to DMSO. How it is done:
COS-1 cells were used to investigate the compound effects on GATA4–NKX2-5 synergistic gene activation using a luciferase reporter assay (Kinnunen et al. [2015]). Toxicity profiling was carried out in eight cell types: the H9c2 myoblast cell line, NRVCs, CFs, mESCs, MEFs, mESC derivatives from day 5 embryoid bodies (D5EBs), hiPSCs and hiPSC-CMs. All cell cultures were maintained at 37 °C in a humidified atmosphere of 5% carbon dioxide (CO2) and the regular growth medium was used for compound exposures. Cell culture methods and cardiomyocyte differentiation from human pluripotent stem cells are described in Supplementary Information.
The empty expression plasmid MT2 (pMT2) and mouse Gata4 expressing pMT2-Gata4 plasmids were gifts from D. B. Wilson (Department of Pediatrics, St. Louis Children’s Hospital) (Arceci et al. [1993]). The luciferase reporter plasmid pGL3-3xHA containing three Nkx2-5 high-affinity binding sites has been described previously (Kinnunen et al. [2015]). To create mouse Nkx2-5 expressing pMT2-Nkx2-5, the cDNA was cloned from pFLCI-Nkx2-5 (clone D330001C20, Imagenes), which was a kind gift from R. Kerkelä (University of Oulu, Finland), with primers containing the EcoRI restriction site (forward: 5′-[…]-3′ and reverse 5′-[…]-3′) and ligated to pMT2 EcoRI site. The correct clone was identified by digestion with specific restriction enzymes and the sequence was verified by DNA sequencing (DNA Sequencing and Genomics Laboratory, Institute of Biotechnology, University of Helsinki, Finland).
COS-1 cells grown on 96-well plates were transfected with the luciferase reporter plasmid pGL3-3xHA (100 ng/well) and equal amounts of expression vectors pMT2-Gata4 and pMT2-Nkx2-5 (total of 50 ng/well) using Fugene 6 (Promega) at a reagent:DNA ratio of 3:1. Cells transfected with either pMT2, pMT2-Gata4 or pMT2-Nkx2-5 were used to confirm synergistic transactivation of the reporter gene in all experiments. After 6 h of transfection, the cells were treated with compounds or vehicle (0.1% dimethyl sulfoxide, DMSO) and the luminescence was measured 24 h later using Neolite Reporter Gene Assay System (PerkinElmer, Turku, Finland) according to manufacturer’s instructions and Victor2 plate reader (PerkinElmer, Turku, Finland). Each compound was tested in three technical replicates in at least two independent experiments.
A luciferase reporter assay with an artificial promoter containing three high-affinity binding sites for NKX2-5 was used to evaluate the effects of the compounds on GATA4–NKX2-5 transcriptional synergy (Kinnunen et al. [2015]). We have previously shown that while GATA4 alone induces only minimal activation of this promoter, it strongly potentiates NKX2-5-mediated transactivation (Kinnunen et al. [2015]; Välimäki et al. [2017]).
Background: A reporter such as luciferase makes a cellular process visible.

For the compound `CCN(CC)c1ccc(NC(=O)c2ccsc2)cc1` [3i-1051], the “toxicity class (toxic / non-toxic)” value in data set [1] is “non-toxic”. Also, in data set [2], the “effect on GATA4- and NKX2-5-induced gene activation (luciferase reporter activity)” value was “ineffective”.
The corresponding values for `CCN(CC)c1ccc(NC(=O)c2c(-n3cccc3)sc(C)c2C)cc1` [3i-1165] are “non-toxic” and “only a weak effect”.
Take `CCN(CC)c1ccc(NC(=O)c2c(-c3coc(C)n3)noc2C)cc1` [3i-1228]: in data set [1], the “toxicity class (toxic / non-toxic)” value is reported as “non-toxic”. Moreover, the “effect on GATA4- and NKX2-5-induced gene activation (luciferase reporter activity)” value in data set [2] is given as “ineffective”.
